Patent US7767232B2, “Control of nitric oxide bioactivity by perfluorocarbons” (New York University, priority 2002, dated 2010)

Assays:
rats [1] = experiment: Plasma low molecular weight S-nitrosothiols and mean arterial pressure after Perftoran and thiols in rats; type: in vivo, rat; details: cysteine 1 mg/kg intravenously, without perfluorocarbon
Procedure: Plasma low molecular weight-S-nitrosothiols were determined using CuCl2 to displace NO from thiol residues followed by electrochemical detection of released NO (Rafikova et al., 2002). The concentration of CuCl2, 40 μM, was selected to decompose predominantly low molecular weight S-nitrosothiols.

rats [2] = experiment: Relation of perfluorocarbon hemodynamic effects to NO: L-NAME and potassium nitrite treated rats, mean arterial pressure; type: in vivo, rat
nitrosothiols formation = experiment: Effect of α-dihydrolipoic acid on nitrosothiol formation and vasorelaxation in the presence of perfluorocarbons; details: FIG. 8, in vitro and in vivo
Source text: If delivered at small concentrations, i.e., less than 1% v/v, and in conjunction with low molecular weight nucleophiles, such as thiols or mixtures of thiols, perfluorocarbons act as a powerful vasodilator rather than as a vasoconstrictor. NO^+ originated from N2O3 in the perfluorocarbon micelles can be transferred to various low molecular weight nucleophiles, exemplified as RSH, by two possible pathways, as shown in FIG. 7. Direct attack on RSH is possible at the surface of perfluorocarbon micelles or inside the micelles, if the RSH were hydrophobic enough to enter it, as shown in pathway I of FIG. 7. Additionally, NO can reach various RSH via a transnitrosation reaction by using a lipophilic low molecular weight “shuttle”, as shown in FIG. 7. One example of such an NO shuttle is α-lipoic acid (α-LA), which is normally present in the circulation at low (micromolar) concentrations (Keipert, 2001). α-lipoic acid has a highly hydrophobic tail (FIG. 7A), which can readily penetrate the perfluorocarbon micelle where it is nitrosated. Since both SH groups of α-dihydro-lipoic acid are located next to each other, upon nitrosation they would almost immediately form an S-S adduct and release NO^+. […]

N[C@@H](CS)C(=O)O [cysteine, L-cysteine]
effect on blood pressure (rats [1]): virtually no effect
effect on plasma low molecular weight S-nitrosothiols (rats [1]): virtually no effect

O=N[O-].[K+] [potassium nitrite]
effect on mean arterial pressure after L-NAME (rats [2]; 1 mg/kg potassium nitrite about 90 minutes after L-NAME): partially restored mean arterial pressure
mean arterial pressure above the baseline (rats [2]; nitrite-treated (L-NAME) rats without Perftoran, same time): about 24 mmHg

O=C(O)CCCC[C@@H](S)CCS [α-dihydrolipoic acid]
effect on formation of nitrosothiols and vasorelaxation (nitrosothiols formation): simulating effect
